# Measurements taken from the kinase profiling compilation of Christmann-Franck et al. (2016).
# Tests used:
# Test in all cases: KINOMEscan competition binding
# Conditions in all cases: compound 1.0 µM
# ACVR2B (human) = ACVR2B (human) (UniProt Q13705)
# ADCK3 (human) = ADCK3 (human) (UniProt Q8NI60)
# ANKK1 (human) = ANKK1 (human) (UniProt Q8NFD2)
# AURKC (human) = AURKC (human) (UniProt Q9UQB9)
# BMPR2 (human) = BMPR2 (human) (UniProt Q13873)
# [1] = tested on: BRAF (human), P15056 [V600E]
# BRSK1 (human) = BRSK1 (human) (UniProt Q8TDC3)
# CAMK2B (human) = CAMK2B (human) (UniProt Q13554)
# CDK17 (human) = CDK17 (human) (UniProt Q00537)
# CDK2 (human) = CDK2 (human) (UniProt P24941)
# CLK4 (human) = CLK4 (human) (UniProt Q9HAZ1)
# [2] = tested on: EGFR (human), P00533 [746-750 del]
# EIF2AK2 (human) = EIF2AK2 (human) (UniProt P19525)
# [3] = tested on: FLT3 (human), P36888 [N841I]
# IKBKB (human) = IKBKB (human) (UniProt O14920)
# IKBKE (human) = IKBKE (human) (UniProt Q14164)
# IRAK1 (human) = IRAK1 (human) (UniProt P51617)
# IRAK1 (human), sequence (P51617 whole entry, looked up): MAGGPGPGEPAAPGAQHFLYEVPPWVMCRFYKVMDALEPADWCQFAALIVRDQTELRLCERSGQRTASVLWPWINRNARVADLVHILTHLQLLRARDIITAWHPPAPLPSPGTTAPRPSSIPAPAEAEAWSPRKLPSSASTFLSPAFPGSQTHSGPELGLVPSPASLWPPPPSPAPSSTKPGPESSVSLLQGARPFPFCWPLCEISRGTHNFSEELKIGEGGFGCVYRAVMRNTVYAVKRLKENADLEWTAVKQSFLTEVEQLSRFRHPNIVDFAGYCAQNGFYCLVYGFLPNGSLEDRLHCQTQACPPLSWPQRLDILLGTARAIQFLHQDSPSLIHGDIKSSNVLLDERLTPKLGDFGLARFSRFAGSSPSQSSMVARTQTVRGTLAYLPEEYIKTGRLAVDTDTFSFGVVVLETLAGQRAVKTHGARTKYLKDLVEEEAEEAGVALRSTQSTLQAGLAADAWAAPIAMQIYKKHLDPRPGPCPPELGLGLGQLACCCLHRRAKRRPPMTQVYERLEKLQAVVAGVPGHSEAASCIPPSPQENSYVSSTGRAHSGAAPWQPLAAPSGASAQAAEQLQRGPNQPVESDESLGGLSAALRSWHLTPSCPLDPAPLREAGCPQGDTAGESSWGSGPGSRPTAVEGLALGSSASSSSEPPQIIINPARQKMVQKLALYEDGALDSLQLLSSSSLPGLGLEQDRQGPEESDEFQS
# MAP2K2 (human) = MAP2K2 (human) (UniProt P36507)
# MAP2K2 (human), sequence (P36507 whole entry, looked up): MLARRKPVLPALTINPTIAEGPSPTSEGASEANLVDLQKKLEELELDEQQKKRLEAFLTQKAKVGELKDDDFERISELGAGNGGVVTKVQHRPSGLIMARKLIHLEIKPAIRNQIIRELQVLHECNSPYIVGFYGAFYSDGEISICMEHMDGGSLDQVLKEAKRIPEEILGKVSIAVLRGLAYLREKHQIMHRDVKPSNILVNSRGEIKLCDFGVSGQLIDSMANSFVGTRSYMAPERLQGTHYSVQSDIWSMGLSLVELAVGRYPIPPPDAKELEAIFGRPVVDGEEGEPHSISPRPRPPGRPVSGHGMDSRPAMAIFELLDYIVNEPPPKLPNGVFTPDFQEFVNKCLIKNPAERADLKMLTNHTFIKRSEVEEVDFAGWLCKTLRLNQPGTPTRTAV
# MAP2K3 (human) = MAP2K3 (human) (UniProt P46734)
# MAP2K3 (human), sequence (P46734 whole entry, looked up): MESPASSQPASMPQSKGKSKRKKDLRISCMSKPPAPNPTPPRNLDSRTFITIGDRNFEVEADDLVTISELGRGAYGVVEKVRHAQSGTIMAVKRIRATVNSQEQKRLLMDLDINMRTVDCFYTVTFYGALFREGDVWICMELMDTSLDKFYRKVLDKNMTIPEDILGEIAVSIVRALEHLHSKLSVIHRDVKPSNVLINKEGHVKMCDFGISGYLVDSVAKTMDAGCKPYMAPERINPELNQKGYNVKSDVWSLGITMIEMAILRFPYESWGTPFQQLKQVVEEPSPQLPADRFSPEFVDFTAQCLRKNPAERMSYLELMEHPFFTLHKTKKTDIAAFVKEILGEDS
# MAP3K1 (human) = MAP3K1 (human) (UniProt Q13233)
# MAP3K2 (human) = MAP3K2 (human) (UniProt Q9Y2U5)
# MAP3K7 (human) = MAP3K7 (human) (UniProt O43318)
# MAP4K3 (human) = MAP4K3 (human) (UniProt Q8IVH8)
# MAPK12 (human) = MAPK12 (human) (UniProt P53778)
# MAPK4 (human) = MAPK4 (human) (UniProt P31152)
# NEK9 (human) = NEK9 (human) (UniProt Q8TD19)
# PAK2 (human) = PAK2 (human) (UniProt Q13177)
# PAK6 (human) = PAK6 (human) (UniProt Q9NQU5)
# PLK2 (human) = PLK2 (human) (UniProt Q9NYY3)
# PLK2 (human), sequence (Q9NYY3 whole entry, looked up): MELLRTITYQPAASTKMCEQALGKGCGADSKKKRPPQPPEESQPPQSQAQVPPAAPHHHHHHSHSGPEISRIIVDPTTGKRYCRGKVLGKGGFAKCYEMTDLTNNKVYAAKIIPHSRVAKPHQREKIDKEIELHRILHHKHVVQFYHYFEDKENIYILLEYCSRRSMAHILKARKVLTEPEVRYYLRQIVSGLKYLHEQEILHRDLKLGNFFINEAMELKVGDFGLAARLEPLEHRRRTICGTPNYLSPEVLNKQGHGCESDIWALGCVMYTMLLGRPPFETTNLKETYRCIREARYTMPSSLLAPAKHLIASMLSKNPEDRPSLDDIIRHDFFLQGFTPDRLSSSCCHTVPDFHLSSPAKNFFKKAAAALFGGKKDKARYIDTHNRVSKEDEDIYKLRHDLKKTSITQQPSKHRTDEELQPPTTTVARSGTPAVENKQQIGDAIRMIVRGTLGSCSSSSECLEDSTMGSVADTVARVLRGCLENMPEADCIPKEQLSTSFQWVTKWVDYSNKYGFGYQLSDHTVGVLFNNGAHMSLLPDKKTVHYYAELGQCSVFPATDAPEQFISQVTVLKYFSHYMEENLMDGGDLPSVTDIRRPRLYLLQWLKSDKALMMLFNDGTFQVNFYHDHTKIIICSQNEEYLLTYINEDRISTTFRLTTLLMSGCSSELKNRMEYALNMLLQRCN
# PLK4 (human) = PLK4 (human) (UniProt O00444)
# PRKCE (human) = PRKCE (human) (UniProt Q02156)
# PRKG2 (human) = PRKG2 (human) (UniProt Q13237)
# PRKG2 (human), sequence (Q13237 whole entry, looked up): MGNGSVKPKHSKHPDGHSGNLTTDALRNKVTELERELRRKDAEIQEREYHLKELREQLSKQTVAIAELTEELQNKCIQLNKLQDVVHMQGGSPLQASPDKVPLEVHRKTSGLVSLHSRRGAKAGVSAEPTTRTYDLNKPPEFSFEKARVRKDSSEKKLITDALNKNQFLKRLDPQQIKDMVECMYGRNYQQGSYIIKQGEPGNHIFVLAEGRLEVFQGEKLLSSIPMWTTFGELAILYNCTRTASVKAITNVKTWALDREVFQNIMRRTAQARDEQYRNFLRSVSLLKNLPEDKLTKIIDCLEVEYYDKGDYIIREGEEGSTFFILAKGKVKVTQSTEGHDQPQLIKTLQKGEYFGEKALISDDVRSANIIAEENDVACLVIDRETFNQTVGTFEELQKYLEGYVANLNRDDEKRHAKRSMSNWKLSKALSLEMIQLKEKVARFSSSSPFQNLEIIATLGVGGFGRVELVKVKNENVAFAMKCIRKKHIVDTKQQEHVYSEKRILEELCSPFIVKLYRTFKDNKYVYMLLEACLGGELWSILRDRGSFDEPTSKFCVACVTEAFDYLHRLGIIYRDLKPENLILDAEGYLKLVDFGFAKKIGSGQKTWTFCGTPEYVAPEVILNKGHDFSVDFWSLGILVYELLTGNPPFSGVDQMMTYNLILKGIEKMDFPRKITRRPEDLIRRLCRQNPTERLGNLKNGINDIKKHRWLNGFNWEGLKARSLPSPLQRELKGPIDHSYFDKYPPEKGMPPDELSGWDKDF
# RPS6KA5 KD1 (human) = RPS6KA5 KD1 (human) (UniProt O75582)
# SRMS (human) = SRMS (human) (UniProt Q9H3Y6)
# SRPK1 (human) = SRPK1 (human) (UniProt Q96SB4)
# SRPK2 (human) = SRPK2 (human) (UniProt P78362)
# STK24 (human) = STK24 (human) (UniProt Q9Y6E0)
# TTK (human) = TTK (human) (UniProt P33981)
# YSK4 (human) = YSK4 (human) (UniProt Q56UN5)
# YSK4 (human), sequence (Q56UN5 whole entry, looked up): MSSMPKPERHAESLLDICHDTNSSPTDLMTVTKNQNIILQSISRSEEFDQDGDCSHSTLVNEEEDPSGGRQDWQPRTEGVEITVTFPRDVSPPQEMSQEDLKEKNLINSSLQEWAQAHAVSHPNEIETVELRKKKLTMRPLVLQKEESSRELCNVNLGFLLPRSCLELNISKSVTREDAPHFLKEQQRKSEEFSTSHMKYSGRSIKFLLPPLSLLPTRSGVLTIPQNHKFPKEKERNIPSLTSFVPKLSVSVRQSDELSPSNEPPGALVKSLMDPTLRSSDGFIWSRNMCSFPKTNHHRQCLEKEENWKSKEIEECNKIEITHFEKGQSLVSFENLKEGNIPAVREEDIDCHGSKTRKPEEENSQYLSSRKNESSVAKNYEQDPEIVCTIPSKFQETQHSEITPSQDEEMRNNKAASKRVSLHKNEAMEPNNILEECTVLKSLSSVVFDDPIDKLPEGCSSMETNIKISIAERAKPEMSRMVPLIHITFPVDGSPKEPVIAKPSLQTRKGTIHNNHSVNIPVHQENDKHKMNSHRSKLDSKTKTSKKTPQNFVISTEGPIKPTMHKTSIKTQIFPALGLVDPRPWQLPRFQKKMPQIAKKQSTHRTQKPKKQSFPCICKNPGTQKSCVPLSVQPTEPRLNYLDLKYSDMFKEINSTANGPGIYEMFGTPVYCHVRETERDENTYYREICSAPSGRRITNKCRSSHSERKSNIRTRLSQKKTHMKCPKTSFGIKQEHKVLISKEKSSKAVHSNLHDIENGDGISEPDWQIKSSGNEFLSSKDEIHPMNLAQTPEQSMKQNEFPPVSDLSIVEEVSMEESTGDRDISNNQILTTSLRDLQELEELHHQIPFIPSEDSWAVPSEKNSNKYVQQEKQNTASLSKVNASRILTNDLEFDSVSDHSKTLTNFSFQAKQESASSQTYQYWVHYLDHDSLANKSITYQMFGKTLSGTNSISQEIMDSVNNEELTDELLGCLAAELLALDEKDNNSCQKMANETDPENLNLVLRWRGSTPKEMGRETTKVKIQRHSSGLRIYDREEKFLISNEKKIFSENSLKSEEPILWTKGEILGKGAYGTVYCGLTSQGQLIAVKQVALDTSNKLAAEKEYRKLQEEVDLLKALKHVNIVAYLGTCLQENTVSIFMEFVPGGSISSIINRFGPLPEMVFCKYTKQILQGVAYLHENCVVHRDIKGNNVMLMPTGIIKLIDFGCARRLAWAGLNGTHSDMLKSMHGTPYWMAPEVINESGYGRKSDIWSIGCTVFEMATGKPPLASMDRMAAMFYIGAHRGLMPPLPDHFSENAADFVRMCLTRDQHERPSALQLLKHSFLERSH
# ZAP70 (human) = ZAP70 (human) (UniProt P43403)
# ZAP70 (human), sequence (P43403 whole entry, looked up): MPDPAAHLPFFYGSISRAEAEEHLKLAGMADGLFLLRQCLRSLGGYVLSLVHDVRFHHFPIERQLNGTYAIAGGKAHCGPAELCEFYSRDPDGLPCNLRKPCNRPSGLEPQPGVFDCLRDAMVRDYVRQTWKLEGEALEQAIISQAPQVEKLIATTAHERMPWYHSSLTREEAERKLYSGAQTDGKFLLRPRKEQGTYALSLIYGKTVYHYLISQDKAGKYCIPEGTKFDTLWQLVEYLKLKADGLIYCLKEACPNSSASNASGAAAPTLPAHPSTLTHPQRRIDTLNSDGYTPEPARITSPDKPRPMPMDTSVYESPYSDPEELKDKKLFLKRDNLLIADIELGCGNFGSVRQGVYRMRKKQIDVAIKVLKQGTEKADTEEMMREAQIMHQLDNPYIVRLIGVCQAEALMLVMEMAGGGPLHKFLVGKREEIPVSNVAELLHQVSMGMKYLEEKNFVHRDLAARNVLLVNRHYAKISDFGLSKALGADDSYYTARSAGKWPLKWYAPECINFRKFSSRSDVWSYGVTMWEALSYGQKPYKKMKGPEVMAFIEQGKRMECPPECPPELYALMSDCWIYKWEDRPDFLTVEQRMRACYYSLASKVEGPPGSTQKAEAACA
structure (smiles),measurement,setting,value
Nc1cc(C(F)(F)F)c(-c2cc(N3CCOCC3)nc(N3CCOCC3)n2)cn1,inhibition of binding,ACVR2B (human),0%
same,inhibition of binding,ADCK3 (human),4%
same,inhibition of binding,ANKK1 (human),0%
same,inhibition of binding,AURKC (human),0%
same,inhibition of binding,BMPR2 (human),0%
same,inhibition of binding,[1],17%
same,inhibition of binding,BRSK1 (human),0%
same,inhibition of binding,CAMK2B (human),18%
same,inhibition of binding,CDK17 (human),26%
same,inhibition of binding,CDK2 (human),30%
same,inhibition of binding,CLK4 (human),70%
same,inhibition of binding,[2],0%
same,inhibition of binding,EIF2AK2 (human),19%
same,inhibition of binding,[3],6%
same,inhibition of binding,IKBKB (human),0%
same,inhibition of binding,IKBKE (human),0%
same,inhibition of binding,IRAK1 (human),12%
same,inhibition of binding,MAP2K2 (human),0%
same,inhibition of binding,MAP2K3 (human),0%
same,inhibition of binding,MAP3K1 (human),0%
same,inhibition of binding,MAP3K2 (human),0%
same,inhibition of binding,MAP3K7 (human),5%
same,inhibition of binding,MAP4K3 (human),0%
same,inhibition of binding,MAPK12 (human),17%
same,inhibition of binding,MAPK4 (human),0%
same,inhibition of binding,NEK9 (human),0%
same,inhibition of binding,PAK2 (human),17%
same,inhibition of binding,PAK6 (human),16%
same,inhibition of binding,PLK2 (human),0%
same,inhibition of binding,PLK4 (human),1%
same,inhibition of binding,PRKCE (human),0%
same,inhibition of binding,PRKG2 (human),0%
same,inhibition of binding,RPS6KA5 KD1 (human),0%
same,inhibition of binding,SRMS (human),0%
same,inhibition of binding,SRPK1 (human),0%
same,inhibition of binding,SRPK2 (human),27%
same,inhibition of binding,STK24 (human),5%
same,inhibition of binding,TTK (human),7%
same,inhibition of binding,YSK4 (human),21%
same,inhibition of binding,ZAP70 (human),4%
